Test results reported in article PMC5641094, “A peptide antagonist of Prep1-p160 interaction improves ceramide-induced insulin resistance in skeletal muscle cells” (Oncotarget, 2017).

Assays:
Format in all cases: cell-based, rat
L6 cells [1] = assay: Glycogen content in L6 cells; settings: for effect on insulin-stimulated glycogen synthesis: insulin 100nM, C2cer 10μM, with or without Prep1(54-72)
Experimental: (§1) Figure 6 Effect of Prep1(54-72) peptide on glycogen content and 2-DG uptake L6 control and Prep1 overexpressing cells were stimulated with Insulin (100nM) and/or C2cer (10μM) and incubated with Prep1(54-72). (A) Glycogen content and (B) 2-DG uptake were measured as described in methods. Bars represent the mean ± SD of three independent experiments. Asterisks denote statistically significant differences (*p<0.05; **p<0.01; ***p<0.001).
(§2) Glycogen was isolated from L6 cells homogenized in 0.1% SDS, saturated with Na2SO4 for 30 minutes at 37°C, followed by ethanol (EtOH) precipitation. Glycogen content was determined as previously described. 2-DG uptake by the L6 cells was measured as previously reported.

L6 cells [2] = assay: 2-DG uptake in L6 cells; settings: for effect on insulin-stimulated glucose uptake (2-DG): insulin 100nM, C2cer 10μM, with or without Prep1(54-72)
Experimental: as §1, §2

[3] = tested on: IRS1 tyrosine phosphorylation; assay: IRS1 tyrosine phosphorylation, immunoprecipitation and Western blot; settings: insulin 100nM; for effect on insulin-stimulated IRS1 tyrosine phosphorylation: L6 cells, C2cer 10μM 18h, with or without Prep1(54-72)
Experimental: Figure 4 Prep1(54-72) peptide restores the insulin signaling inhibited by C2cer and Prep1 L6 cells were stimulated with insulin (100nM) and incubated with Prep1(54-72) in presence of C2cer at 10μM for 18h (A-B) or stable transfection of Prep1 (C-D). Protein lysates were immunoprecipitated with specific IR or IRS1 antibodies and analyzed by Western blot using antibodies for phosphotyrosines (pY) and beta-actin as loading control. Blots were detected by ECL and autoradiography. The autoradiographs are representative of three independent experiments. Asterisks denote statistically significant differences (*p<0.05; **p<0.01).
(§3) Total cell lysates were obtained and separated by SDS-PAGE. Briefly, cells were solubilized with lysis buffer containing 50mM HEPES, 150mM NaCl, 10mM EDTA, 10mM Na4P2O7, 2mM sodium orthovanadate, 50mM NaF, 1mM phenylmethylsulfonyl fluoride, 10μg/ml aprotinin, 10μg/ml leupeptin, pH 7.4, and 1% (v/v) Triton X-100. Lysates were clarified by centrifugation at 12,000g for 20 minutes at 4°C. The protein concentrations in the cell lysates were measured using a Bio-Rad DC (detergent compatible) assay. Immunoprecipitation and Western blot analysis have been performed as previously described.

[4] = tested on: PGC-1α and GLUT4 protein expression; assay: PGC-1α and GLUT4 protein expression, Western blot
Experimental: Figure 5 Effect of Prep1(54-72) peptide on Akt phosphorylation and PGC-1α and GLUT4 protein levels (A-B) L6 control and Prep1 overexpressing cells were stimulated with Insulin (100nM) and/or C2cer (10μM) and incubated with Prep1(54-72). Protein lysates were analyzed by Western blot using antibodies for pAkt, Akt and for the beta-actin, as a loading control. (C) PGC-1α and GLUT4 protein levels were measured by using specific antibodies for these proteins and beta-actin antibody was used as loading control. Blots were detected by ECL and autoradiography. The autoradiographs are representative of four independent experiments. Asterisks denote statistically significant differences (*p<0.05; **p<0.01; ***p<0.001).
as §3

CCCCCCCCCCCCC/C=C/[C@@H](O)[C@H](CO)NC(C)=O [C2cer, D-erythro-Sphingosine, N-Acetyl-, reference compound]
reduction of insulin-stimulated glycogen content (L6 cells [1]; C2cer exposure (abstract)): 1.3 fold
effect on insulin-stimulated glycogen synthesis (L6 cells [1]): negatively modulated
reduction of insulin-stimulated glucose uptake (L6 cells [2]; C2cer exposure (abstract)): 2.1 fold
effect on insulin-stimulated glucose uptake (2-DG) (L6 cells [2]): negatively modulated
effect on insulin-stimulated IRS1 tyrosine phosphorylation [3]: blocked
decrease of PGC-1α and GLUT4 protein expression ([4]; L6 cells incubated with C2cer 10μM): approximately 35%

Ac-KQAIYRHPLFPLLALLFEK-NH2 [Prep1(54-72)]
effect on insulin-stimulated glycogen synthesis (L6 cells [1]): recovered the insulin response
effect on insulin-stimulated glucose uptake (2-DG) (L6 cells [2]): recovered the insulin response
effect on insulin-stimulated IRS1 tyrosine phosphorylation [3]: restored
IRS1 tyrosine phosphorylation in Prep1 overexpressing cells ([3]; Prep1L6 cells (stably transfected with Prep1 cDNA), incubated with Prep1(54-72)): stimulated similarly to the control cells
effect on decreased PGC-1α and GLUT4 protein expression ([4]; L6 cells with C2cer or Prep1 overexpression, Prep1(54-72)): significantly reverted
